{"source": "patent US7981867B2", "about": "“Use of des-aspartate-angiotensin I” (priority 2005, dated 2011)", "key": {"[1]": {"system": "Influenza A/Aichi/2/68 virus", "type": "in vivo, BALB/c mice"}, "serum insulin": {"system": "serum insulin", "assay": "Serum insulin level of diabetic GK rats (ELISA)", "type": "in vivo", "conditions": "600 nmole/kg oral, 8 weeks, serum at 30 min of the oral glucose tolerance test, vs control", "procedure": "Serum from 8 weeks treated animals (as described in EXAMPLE 9) were assayed for insulin concentration by the “Ultra Senstive Rat Insulin ELISA kit” (Crystal Chem. Inc., IL, USA). The values were from serum taken at 30 min of the oral glucose tolerance test.\nThe diabetic GK rats described in EXAMPLE 9 were similarly treated for another week. At 9 weeks of treatment, animals were fasted overnight and half the animals in each group were intraperitoneally administered with PBS and the other half with insulin (0.5 U/kg). After 30 minutes, the animals were sacrificed by cervical dislocation. Hind limb skeletal muscles were rapidly excised and frozen in liquid nitrogen. Muscle samples were stored at −80° C. until used. The hindlimb muscles were subsequently thawed over an ice pack and plasma membranes were prepared as described by Dombrowaski et al. Thirty μg of protein from the 25% interface of the discontinued sucrose gradient was subjected to SDS-PAGE, transferred to PVDF sheets and incubated with anti-GLUT4 polyclonal primary antibody (1:800), washed and followed by incubation with anti-goat secondary antibody (1:10,000). The bands were detected at 49 kDa. […] As insulin resistance is the hallmark of diabetes, it is concluded that the des-aspartate-angiotensin I exerts marked hypoglycaemic action in diabetic GK rats by overcoming insulin resistance in these animals."}, "[2]": {"conditions": "oral 1200 nmole/kg given as a single dose on Day 2 (n = 9), post infection day 11"}}, "note": "Where two headings read alike, the source gives them in different places. Marks after values point to notes of the source that are not given here."}
{"substance": "des-aspartate-angiotensin I (RVYIHPFHL; Angiotensin-1; UniProt P01019 26-34, looked up, fragment) [endogenous angiotensin peptide derived from angiotensin I by a specific aminopeptidase; purchased from Bachem]", "values": [{"measurement": "Average Percentage Weight Change", "setting": "[1]; oral 300 nmole/kg/day for 16 days (n = 5), post infection day 0 (taken as 100%)", "value": 100, "unit": "%"}, {"measurement": "Average Percentage Weight Change", "setting": "[1]; oral 300 nmole/kg/day for 16 days (n = 5), post infection day 1", "value": "102.1 ± 1.5", "unit": "%"}, {"measurement": "Average Percentage Weight Change", "setting": "[1]; oral 300 nmole/kg/day for 16 days (n = 5), post infection day 2", "value": "96.2 ± 2.0", "unit": "%"}, {"measurement": "Average Percentage Weight Change", "setting": "[1]; oral 300 nmole/kg/day for 16 days (n = 5), post infection day 3", "value": "90.8 ± 2.4", "unit": "%"}, {"measurement": "Average Percentage Weight Change", "setting": "[1]; oral 300 nmole/kg/day for 16 days (n = 5), post infection day 4", "value": "85.8 ± 2.9", "unit": "%"}, {"measurement": "Average Percentage Weight Change", "setting": "[1]; oral 300 nmole/kg/day for 16 days (n = 5), post infection day 5", "value": "83.2 ± 3.4", "unit": "%"}, {"measurement": "number of animals that died on the day of recording", "setting": "[1]; oral 300 nmole/kg/day for 16 days (n = 5), post infection day 6", "value": 3}, {"measurement": "Average Percentage Weight Change", "setting": "[1]; oral 300 nmole/kg/day for 16 days (n = 5), post infection day 6, two surviving mice, no SEM", "value": 94.1, "unit": "%"}, {"measurement": "Average Percentage Weight Change", "setting": "[1]; oral 300 nmole/kg/day for 16 days (n = 5), post infection day 7, two surviving mice, no SEM", "value": "95.7^# %"}, {"measurement": "Average Percentage Weight Change", "setting": "[1]; oral 300 nmole/kg/day for 16 days (n = 5), post infection day 8, two surviving mice, no SEM", "value": "97.9^# %"}, {"measurement": "Average Percentage Weight Change", "setting": "[1]; oral 300 nmole/kg/day for 16 days (n = 5), post infection day 9, two surviving mice, no SEM", "value": "98.7^# %"}, {"measurement": "Average Percentage Weight Change", "setting": "[1]; oral 300 nmole/kg/day for 16 days (n = 5), post infection day 10, two surviving mice, no SEM", "value": "98.1^# %"}, {"measurement": "Average Percentage Weight Change", "setting": "[1]; oral 300 nmole/kg/day for 16 days (n = 5), post infection day 11, two surviving mice, no SEM", "value": "97.4^# %"}, {"measurement": "Average Percentage Weight Change", "setting": "[1]; oral 300 nmole/kg/day for 16 days (n = 5), post infection day 12, two surviving mice, no SEM", "value": "96.9^# %"}, {"measurement": "Average Percentage Weight Change", "setting": "[1]; oral 300 nmole/kg/day for 16 days (n = 5), post infection day 13, two surviving mice, no SEM", "value": "96.8^# %"}, {"measurement": "Average Percentage Weight Change", "setting": "[1]; oral 300 nmole/kg/day for 16 days (n = 5), post infection day 14, two surviving mice, no SEM", "value": "98.2^# %"}, {"measurement": "Average Percentage Weight Change", "setting": "[1]; oral 300 nmole/kg/day for 16 days (n = 5), post infection day 15, two surviving mice, no SEM", "value": "99.6^# %"}, {"measurement": "Average Percentage Weight Change", "setting": "[1]; oral 300 nmole/kg/day for 16 days (n = 5), post infection day 16, two surviving mice, no SEM", "value": "102.4^# %"}, {"measurement": "antiviral activity (attenuation of weight loss, survival)", "setting": "[1]; oral 600 nmole/kg administered daily for 8 days", "value": "Effective antiviral activity"}, {"measurement": "Average Percentage Weight Change", "setting": "[1]; oral 600 nmole/kg/day for 16 days (n = 9), post infection day 0 (taken as 100%)", "value": 100, "unit": "%"}, {"measurement": "Average Percentage Weight Change", "setting": "[1]; oral 600 nmole/kg/day for 16 days (n = 9), post infection day 1", "value": "98.7 ± 1.3", "unit": "%"}, {"measurement": "Average Percentage Weight Change", "setting": "[1]; oral 600 nmole/kg/day for 16 days (n = 9), post infection day 2", "value": "95.8 ± 1.4", "unit": "%"}, {"measurement": "Average Percentage Weight Change", "setting": "[1]; oral 600 nmole/kg/day for 16 days (n = 9), post infection day 3", "value": "92.0 ± 1.7", "unit": "%"}, {"measurement": "Average Percentage Weight Change", "setting": "[1]; oral 600 nmole/kg/day for 16 days (n = 9), post infection day 4", "value": "92.4 ± 1.8", "unit": "%"}, {"measurement": "Average Percentage Weight Change", "setting": "[1]; oral 600 nmole/kg/day for 16 days (n = 9), post infection day 5", "value": "94.8 ± 1.8", "unit": "%"}, {"measurement": "Average Percentage Weight Change", "setting": "[1]; oral 600 nmole/kg/day for 16 days (n = 9), post infection day 6", "value": "95.5 ± 2.1", "unit": "%"}, {"measurement": "Average Percentage Weight Change", "setting": "[1]; oral 600 nmole/kg/day for 16 days (n = 9), post infection day 7", "value": "97.8 ± 2.6", "unit": "%"}, {"measurement": "Average Percentage Weight Change", "setting": "[1]; oral 600 nmole/kg/day for 16 days (n = 9), post infection day 8", "value": "96.7 ± 2.9", "unit": "%"}, {"measurement": "Average Percentage Weight Change", "setting": "[1]; oral 600 nmole/kg/day for 16 days (n = 9), post infection day 9", "value": "96.3 ± 3.5", "unit": "%"}, {"measurement": "Average Percentage Weight Change", "setting": "[1]; oral 600 nmole/kg/day for 16 days (n = 9), post infection day 10", "value": "95.6 ± 4.0", "unit": "%"}, {"measurement": "Average Percentage Weight Change", "setting": "[1]; oral 600 nmole/kg/day for 16 days (n = 9), post infection day 11", "value": "95.4 ± 4.5", "unit": "%"}, {"measurement": "Average Percentage Weight Change", "setting": "[1]; oral 600 nmole/kg/day for 16 days (n = 9), post infection day 12", "value": "95.1 ± 5.0", "unit": "%"}, {"measurement": "Average Percentage Weight Change", "setting": "[1]; oral 600 nmole/kg/day for 16 days (n = 9), post infection day 13", "value": "95.5 ± 5.2", "unit": "%"}, {"measurement": "Average Percentage Weight Change", "setting": "[1]; oral 600 nmole/kg/day for 16 days (n = 9), post infection day 14", "value": "99.1 ± 3.4", "unit": "%"}, {"measurement": "Average Percentage Weight Change", "setting": "[1]; oral 600 nmole/kg/day for 16 days (n = 9), post infection day 15", "value": "100.3 ± 4.2", "unit": "%"}, {"measurement": "Average Percentage Weight Change", "setting": "[1]; oral 600 nmole/kg/day for 16 days (n = 9), post infection day 16", "value": "97.0 ± 4.8", "unit": "%"}, {"measurement": "Average Percentage Weight Change", "setting": "[1]; oral 1200 nmole/kg given as a single dose on Day 2 (n = 9), post infection day 0 (taken as 100%)", "value": 100, "unit": "%"}, {"measurement": "Average Percentage Weight Change", "setting": "[1]; oral 1200 nmole/kg given as a single dose on Day 2 (n = 9), post infection day 1", "value": "103.5 ± 0.5", "unit": "%"}, {"measurement": "Average Percentage Weight Change", "setting": "[1]; oral 1200 nmole/kg given as a single dose on Day 2 (n = 9), post infection day 2", "value": "96.8 ± 0.6", "unit": "%"}, {"measurement": "Average Percentage Weight Change", "setting": "[1]; oral 1200 nmole/kg given as a single dose on Day 2 (n = 9), post infection day 3", "value": "95.1 ± 0.8", "unit": "%"}, {"measurement": "Average Percentage Weight Change", "setting": "[1]; oral 1200 nmole/kg given as a single dose on Day 2 (n = 9), post infection day 4", "value": "96.7 ± 1.2", "unit": "%"}, {"measurement": "Average Percentage Weight Change", "setting": "[1]; oral 1200 nmole/kg given as a single dose on Day 2 (n = 9), post infection day 5", "value": "96.3 ± 2.1", "unit": "%"}, {"measurement": "Average Percentage Weight Change", "setting": "[1]; oral 1200 nmole/kg given as a single dose on Day 2 (n = 9), post infection day 6", "value": "95.7 ± 3.1", "unit": "%"}, {"measurement": "Average Percentage Weight Change", "setting": "[1]; oral 1200 nmole/kg given as a single dose on Day 2 (n = 9), post infection day 7", "value": "97.8 ± 4.0", "unit": "%"}, {"measurement": "Average Percentage Weight Change", "setting": "[1]; oral 1200 nmole/kg given as a single dose on Day 2 (n = 9), post infection day 8", "value": "98.3 ± 4.3", "unit": "%"}, {"measurement": "Average Percentage Weight Change", "setting": "[1]; oral 1200 nmole/kg given as a single dose on Day 2 (n = 9), post infection day 9", "value": "101.1 ± 4.7", "unit": "%"}, {"measurement": "Average Percentage Weight Change", "setting": "[1]; oral 1200 nmole/kg given as a single dose on Day 2 (n = 9), post infection day 10", "value": "101.1 ± 4.8", "unit": "%"}, {"measurement": "Average Percentage Weight Change", "setting": "[1]; [2]", "value": "105.9 ± 1.3", "unit": "%"}, {"measurement": "number of animals that died on the day of recording", "setting": "[1]; [2]", "value": 1}, {"measurement": "Average Percentage Weight Change", "setting": "[1]; oral 1200 nmole/kg given as a single dose on Day 2 (n = 9), post infection day 12", "value": "106.1 ± 1.3", "unit": "%"}, {"measurement": "Average Percentage Weight Change", "setting": "[1]; oral 1200 nmole/kg given as a single dose on Day 2 (n = 9), post infection day 13", "value": "108.1 ± 1.2", "unit": "%"}, {"measurement": "Average Percentage Weight Change", "setting": "[1]; oral 1200 nmole/kg given as a single dose on Day 2 (n = 9), post infection day 14", "value": "107.2 ± 1.3", "unit": "%"}, {"measurement": "Average Percentage Weight Change", "setting": "[1]; oral 1200 nmole/kg given as a single dose on Day 2 (n = 9), post infection day 15", "value": "109.4 ± 1.2", "unit": "%"}, {"measurement": "Average Percentage Weight Change", "setting": "[1]; oral 1200 nmole/kg given as a single dose on Day 2 (n = 9), post infection day 16", "value": "108.4 ± 1.5", "unit": "%"}, {"measurement": "antiviral activity (attenuation of weight loss, survival)", "setting": "[1]; oral single dose of 1200 nmole/kg given on Day 2", "value": "Effective antiviral activity"}, {"measurement": "serum level of insulin", "setting": "serum insulin", "value": "not significantly affected"}, {"measurement": "serum level of insulin", "setting": "serum insulin; listed as des-aspartate-angiotesnin I", "value": "no significant difference"}]}
